Results from ChEMBL document CHEMBL1201862, “PubChem BioAssay data set” (2004).
Activity calls are given as the source filed them.

Assays:
[1] = target: Large T antigen (Simian virus 40, UniProt P03070); format: functional, Betapolyomavirus macacae;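 note: Confirmatory-stage PubChem screen for compounds that inhibit SV40 T antigen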
[2] = cytotoxicity in HEK-293T cells, dose response, cytotoxicity control for TCR NF-kB inhibitor project, luminescence, T-cell screen hits (AID 489026); format: functional, cell-based;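 note: cells exposed to compound about 14 hours before the viability readout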
[3] = Luminescence Cell-Based Dose Confirmation HTS to Identify Activators of 5'UTR Stem-Loop Driven Alpha-Synuclein mRNA Translation in H4 Neuroglioblastoma Cells. [Related pubchem assays: 1829 (Project Summary), 1814 (Primary HTS)]; format: functional
[4] = target: T1, Heat shock factor protein 1 (Mus musculus, UniProt P38532); assay: inhibition of MG132-induced HSE-luciferase signal, confirmation, cell-based, NIH3T3, luminescence, dose retest (AID 2382); format: functional;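 note: NIH3T3 fibroblasts with HSF1-driven luciferase reporter stressed by proteasome inhibitor MG132; luminescence from HSF1-driven luciferase expression after 8 hours of MG132 stress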
T1 sequence (P38532 whole entry): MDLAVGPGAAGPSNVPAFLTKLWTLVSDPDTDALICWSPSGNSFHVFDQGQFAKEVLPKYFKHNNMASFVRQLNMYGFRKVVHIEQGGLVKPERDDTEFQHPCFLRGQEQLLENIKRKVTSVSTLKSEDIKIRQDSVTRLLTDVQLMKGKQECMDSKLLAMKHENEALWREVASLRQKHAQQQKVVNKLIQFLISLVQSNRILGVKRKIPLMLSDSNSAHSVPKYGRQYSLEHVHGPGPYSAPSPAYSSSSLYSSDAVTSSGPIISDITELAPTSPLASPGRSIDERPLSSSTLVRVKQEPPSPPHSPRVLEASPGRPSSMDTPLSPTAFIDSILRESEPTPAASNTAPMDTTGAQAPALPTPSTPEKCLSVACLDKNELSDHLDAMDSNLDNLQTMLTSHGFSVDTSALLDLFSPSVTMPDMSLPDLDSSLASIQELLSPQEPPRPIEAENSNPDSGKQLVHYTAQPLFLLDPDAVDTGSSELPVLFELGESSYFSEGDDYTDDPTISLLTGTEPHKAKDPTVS

[5] = Luminescence Cell-Based Dose Response HTS to Identify Activators of Luciferase Translation or Activity in H4 […] Cells. [Related pubchem assays: 1829 (Project Summary), 1814 (Primary HTS)]; format: functional
[6] = system: H4; assay: Luminescence Cell-Based Dose Response HTS to Identify Activators of 5'UTR Stem-Loop Driven Prion Protein mRNA Translation in H4 Neuroglioblastoma Cells. [Related pubchem assays: 1829 (Project Summary), 1814 (Primary HTS)]; format: functional; conditions: Homo sapiens
[7] = Luminescence Cell-Based Dose Retest to Confirm Inhibitors of Cancer Stem Cells. [Related pubchem assays (depositor defined):AID2717, AID2721]; format: functional; conditions: Homo sapiens
[8] = target: Cytochrome P450 3A4 (Homo sapiens, UniProt P08684); conditions: Potency;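 note: confirmatory qHTS run detecting inhibitors and substrates of CYP3A4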
Cytochrome P450 3A4, sequence (P08684 whole entry): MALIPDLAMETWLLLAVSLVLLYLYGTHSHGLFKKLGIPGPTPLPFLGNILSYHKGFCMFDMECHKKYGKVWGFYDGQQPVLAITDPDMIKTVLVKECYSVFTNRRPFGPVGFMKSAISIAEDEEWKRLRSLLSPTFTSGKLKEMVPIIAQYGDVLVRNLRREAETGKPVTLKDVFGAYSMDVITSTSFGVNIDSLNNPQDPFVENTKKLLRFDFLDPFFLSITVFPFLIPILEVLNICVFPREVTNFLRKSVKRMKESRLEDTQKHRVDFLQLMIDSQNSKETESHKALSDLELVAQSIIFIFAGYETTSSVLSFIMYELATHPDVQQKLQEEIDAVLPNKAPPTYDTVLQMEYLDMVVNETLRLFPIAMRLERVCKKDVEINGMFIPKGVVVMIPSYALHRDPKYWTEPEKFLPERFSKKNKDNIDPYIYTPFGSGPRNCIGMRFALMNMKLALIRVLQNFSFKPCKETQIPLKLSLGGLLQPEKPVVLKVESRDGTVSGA

[9] = P. falciparum Dd2 growth inhibitors, dose response, SYBR Green, cherry-picked samples (AID 1159567); format: functional, cell-based
[10] = target: Heat shock protein HSP 90-alpha (Homo sapiens, UniProt P07900); format: functional, organism-based
[11] = target: T2, Polyadenylate-binding protein 1 (Homo sapiens, UniProt P11940); assay: PABP1 MLLE–PAM2 interaction inhibitors, dose response, miRNA deadenylation inhibitor project, biochemical, fluorescence polarization, Cy5-PAM2 peptide, secondary (AID 602260); format: functional; conditions: read-out: IC50_Mean
T2 sequence (P11940 whole entry): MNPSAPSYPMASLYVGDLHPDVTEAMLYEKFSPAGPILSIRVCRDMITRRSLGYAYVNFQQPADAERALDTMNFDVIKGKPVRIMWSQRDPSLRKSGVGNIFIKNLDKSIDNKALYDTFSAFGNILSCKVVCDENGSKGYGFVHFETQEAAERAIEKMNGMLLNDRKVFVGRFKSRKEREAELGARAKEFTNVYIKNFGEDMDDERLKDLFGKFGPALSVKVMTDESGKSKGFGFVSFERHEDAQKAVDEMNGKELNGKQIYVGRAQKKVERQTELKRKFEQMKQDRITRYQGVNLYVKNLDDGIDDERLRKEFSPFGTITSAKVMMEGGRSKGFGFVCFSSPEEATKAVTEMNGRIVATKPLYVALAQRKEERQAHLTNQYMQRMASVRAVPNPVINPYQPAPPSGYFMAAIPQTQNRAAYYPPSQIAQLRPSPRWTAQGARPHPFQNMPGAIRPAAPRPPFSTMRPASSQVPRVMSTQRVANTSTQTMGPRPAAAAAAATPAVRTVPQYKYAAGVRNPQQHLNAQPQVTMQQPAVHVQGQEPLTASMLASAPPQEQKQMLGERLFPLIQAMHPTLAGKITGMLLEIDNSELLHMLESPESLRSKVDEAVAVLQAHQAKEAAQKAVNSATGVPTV

[12] = target: T2, Polyadenylate-binding protein 1; assay: PABP1 MLLE–PAM2 binding inhibitor potency, dose response, biochemical, fluorescence polarization, FITC-PAM2 peptide (AID 602259); format: functional; conditions: read-out: IC50_Mean
[13] = Luminescence Cell-Based Dose Confirmation HTS to Identify Inhibitors of Platelet Dense Granule Release. [Related pubchem assays: 1663 (Primary HTS), 1678 (Summary of Project)]; format: functional
[14] = target: Luciferin 4-monooxygenase (Photinus pyralis, UniProt P08659); assay: firefly luciferase enzyme inhibitors, dose response, biochemical, luminescence (AID 1891)
Luciferin 4-monooxygenase, sequence (P08659 whole entry): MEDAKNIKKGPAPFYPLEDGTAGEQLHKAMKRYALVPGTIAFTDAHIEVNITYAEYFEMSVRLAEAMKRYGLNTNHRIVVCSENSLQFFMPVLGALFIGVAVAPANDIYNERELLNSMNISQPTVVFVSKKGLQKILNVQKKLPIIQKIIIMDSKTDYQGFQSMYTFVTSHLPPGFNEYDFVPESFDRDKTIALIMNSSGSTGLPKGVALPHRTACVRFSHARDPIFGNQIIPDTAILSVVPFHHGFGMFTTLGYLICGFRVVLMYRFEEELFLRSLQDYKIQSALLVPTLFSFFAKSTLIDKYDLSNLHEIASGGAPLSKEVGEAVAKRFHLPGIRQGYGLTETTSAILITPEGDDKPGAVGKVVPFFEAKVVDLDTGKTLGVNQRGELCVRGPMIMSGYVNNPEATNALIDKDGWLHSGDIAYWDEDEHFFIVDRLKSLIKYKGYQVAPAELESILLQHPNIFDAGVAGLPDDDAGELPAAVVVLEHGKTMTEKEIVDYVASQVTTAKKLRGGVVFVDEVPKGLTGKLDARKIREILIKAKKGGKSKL

[15] = target: Paired box protein Pax-8 (Homo sapiens, UniProt Q06710); assay: inhibitors of PAX8-driven TPO luciferase reporter, dose response, RMG-I cells, cherry-pick (AID 687027); format: functional, cell-based;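 note: luciferase reporter driven by Pax8 target thyroperoxidase promoter measured by SteadyGlo luminescence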
Paired box protein Pax-8, sequence (Q06710 whole entry): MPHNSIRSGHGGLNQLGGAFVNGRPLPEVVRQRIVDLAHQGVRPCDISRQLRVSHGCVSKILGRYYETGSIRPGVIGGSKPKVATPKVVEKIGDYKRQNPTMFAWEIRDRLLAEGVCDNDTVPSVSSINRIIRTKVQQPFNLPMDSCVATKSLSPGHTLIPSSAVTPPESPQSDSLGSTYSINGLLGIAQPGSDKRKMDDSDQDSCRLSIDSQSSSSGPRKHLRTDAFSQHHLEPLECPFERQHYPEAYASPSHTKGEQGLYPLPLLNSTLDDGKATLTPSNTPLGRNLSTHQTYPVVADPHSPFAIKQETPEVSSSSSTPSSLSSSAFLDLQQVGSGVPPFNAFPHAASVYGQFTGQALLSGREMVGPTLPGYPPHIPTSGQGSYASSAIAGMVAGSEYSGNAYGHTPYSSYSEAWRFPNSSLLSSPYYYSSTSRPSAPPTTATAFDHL

[16] = HEK293 cell cytotoxicity, dose response, cytotoxicity control, plate reader, cherry-picked samples (AID 743446); format: functional, cell-based
[17] = target: T3, Replicative DNA helicase DnaB (Mycobacterium tuberculosis, UniProt P9WMR3); assay: DnaB intein splicing inhibitors, dose response, biochemical, cell-free fluorescence (AID 449749); format: functional
T3 sequence (P9WMR3 whole entry): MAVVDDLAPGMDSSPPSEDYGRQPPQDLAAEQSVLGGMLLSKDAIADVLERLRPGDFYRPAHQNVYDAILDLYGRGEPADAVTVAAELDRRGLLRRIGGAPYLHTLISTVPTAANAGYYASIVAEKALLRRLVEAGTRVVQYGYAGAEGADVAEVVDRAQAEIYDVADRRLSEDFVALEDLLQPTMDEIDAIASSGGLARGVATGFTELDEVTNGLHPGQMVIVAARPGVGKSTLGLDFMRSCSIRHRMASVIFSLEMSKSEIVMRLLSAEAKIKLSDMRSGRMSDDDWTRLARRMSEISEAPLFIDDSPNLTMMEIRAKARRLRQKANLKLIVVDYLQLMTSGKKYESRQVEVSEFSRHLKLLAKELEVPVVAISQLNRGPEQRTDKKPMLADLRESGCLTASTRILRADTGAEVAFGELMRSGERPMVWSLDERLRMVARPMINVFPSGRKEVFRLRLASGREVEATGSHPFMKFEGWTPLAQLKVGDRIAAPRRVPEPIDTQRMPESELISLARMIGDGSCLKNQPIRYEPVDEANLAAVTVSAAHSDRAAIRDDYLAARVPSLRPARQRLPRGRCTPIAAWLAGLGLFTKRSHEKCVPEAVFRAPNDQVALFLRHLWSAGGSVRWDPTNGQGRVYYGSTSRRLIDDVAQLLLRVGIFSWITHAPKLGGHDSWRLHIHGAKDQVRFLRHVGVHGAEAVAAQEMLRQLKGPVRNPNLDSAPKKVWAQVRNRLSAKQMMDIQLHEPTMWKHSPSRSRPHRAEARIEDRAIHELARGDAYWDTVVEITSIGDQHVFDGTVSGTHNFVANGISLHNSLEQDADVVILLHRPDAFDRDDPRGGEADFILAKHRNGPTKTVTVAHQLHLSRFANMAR

[18] = target: T1, Heat shock factor protein 1; assay: HSF1 potentiators in luciferase reporter cells, confirmation, cell-based, NIH3T3, luminescence, dose retest (AID 435004); format: functional;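 note: stress induced by proteasome inhibitor MG132 added 30 min after compound; luciferase reporter driven by HSF1 response element in NIH3T3 cells; actives raise luminescence as potentiators of the MG132 stress response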
[19] = LGR2 antagonists, dose response, cell-based, HEK293, CRE-luciferase reporter, cherry pick, set 2 (AID 743343); format: functional;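 note: transfected cells were stimulated with diluted bursicon conditioned medium after compound addition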
[20] = target: T4, Protein RecA (Mycobacterium tuberculosis, UniProt P9WHJ3); assay: Fluorescence Cell-Free Homogeneous Dose Retest to Identify Inhibitors of RecA-Intein Splicing Activity. [Related pubchem assays (depositor defined):AID2097, AID2223, AID489010, AID492950]; format: functional
T4 sequence (P9WHJ3 whole entry): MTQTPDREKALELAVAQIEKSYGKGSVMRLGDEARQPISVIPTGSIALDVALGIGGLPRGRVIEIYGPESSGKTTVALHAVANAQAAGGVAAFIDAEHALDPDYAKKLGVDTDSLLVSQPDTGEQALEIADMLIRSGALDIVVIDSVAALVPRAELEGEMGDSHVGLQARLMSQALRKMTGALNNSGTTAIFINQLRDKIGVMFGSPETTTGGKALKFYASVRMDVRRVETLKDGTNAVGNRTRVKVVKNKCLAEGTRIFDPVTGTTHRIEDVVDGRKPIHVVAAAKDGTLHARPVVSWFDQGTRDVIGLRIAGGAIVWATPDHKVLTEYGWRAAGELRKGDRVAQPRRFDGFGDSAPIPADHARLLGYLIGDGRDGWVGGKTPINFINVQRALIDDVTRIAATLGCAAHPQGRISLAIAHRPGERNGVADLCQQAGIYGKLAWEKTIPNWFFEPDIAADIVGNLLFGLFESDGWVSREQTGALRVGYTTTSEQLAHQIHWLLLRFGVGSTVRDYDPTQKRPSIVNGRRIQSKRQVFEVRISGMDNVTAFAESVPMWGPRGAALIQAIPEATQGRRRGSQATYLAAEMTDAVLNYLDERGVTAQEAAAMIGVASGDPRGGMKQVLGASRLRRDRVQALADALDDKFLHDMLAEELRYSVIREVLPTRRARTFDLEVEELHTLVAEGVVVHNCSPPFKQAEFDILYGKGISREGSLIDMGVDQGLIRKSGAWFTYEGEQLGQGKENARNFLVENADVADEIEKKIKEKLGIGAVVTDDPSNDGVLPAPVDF

[21] = HepG2 cell cytotoxicity, dose response, cytotoxicity control, plate reader, cherry-pick, antagonist series (AID 743416); format: functional, cell-based
[22] = A549 cell cytotoxicity, dose response, cytotoxicity control, plate reader, cherry-pick, antagonist series (AID 743412); format: functional, cell-based

Large T antigen, sequence (P03070 whole entry): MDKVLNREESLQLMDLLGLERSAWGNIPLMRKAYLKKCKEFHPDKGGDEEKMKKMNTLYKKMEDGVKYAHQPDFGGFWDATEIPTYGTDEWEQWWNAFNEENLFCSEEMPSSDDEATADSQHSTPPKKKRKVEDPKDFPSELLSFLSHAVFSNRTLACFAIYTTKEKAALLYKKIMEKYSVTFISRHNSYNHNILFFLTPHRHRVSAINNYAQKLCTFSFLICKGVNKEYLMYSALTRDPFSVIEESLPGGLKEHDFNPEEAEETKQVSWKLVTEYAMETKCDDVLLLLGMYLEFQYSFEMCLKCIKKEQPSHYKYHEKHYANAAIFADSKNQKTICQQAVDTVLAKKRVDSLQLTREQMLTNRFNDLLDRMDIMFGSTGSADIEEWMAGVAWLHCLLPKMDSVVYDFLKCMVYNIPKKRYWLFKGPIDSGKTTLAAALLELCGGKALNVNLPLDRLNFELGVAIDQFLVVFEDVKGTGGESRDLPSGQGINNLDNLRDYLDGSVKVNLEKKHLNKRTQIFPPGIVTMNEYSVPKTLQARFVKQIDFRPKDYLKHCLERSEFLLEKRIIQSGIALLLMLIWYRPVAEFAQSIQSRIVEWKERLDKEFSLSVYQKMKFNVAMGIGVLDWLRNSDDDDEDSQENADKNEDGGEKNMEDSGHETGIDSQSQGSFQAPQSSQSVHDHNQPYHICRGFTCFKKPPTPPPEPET

In the case of `Cc1occc1C(=O)N/N=C/C=C/c1ccc(N(C)C)cc1`, the IC50 [1] is reported as 19.7 µM (active).
In the case of `Cc1nc(NCc2ccco2)c2c(C)c(C)sc2n1`, the IC50 [2] is reported as > 80 µM (inactive), the EC50 [3] is reported as > 120 µM (not active) and the EC50 [4] is reported as 1.22 µM (active). For the same compound, the EC50 [5] was 8.42 µM (active), the EC50 [6] was > 120 µM (not active) and the AC50 [7] was 3.97 µM (active).
In the case of `COC(=O)[C@@]1(C)C=C[C@@H](Cc2ccccc2)N1C(C)=O`, the AC50 [8] is reported as 31.6 µM (inconclusive).
For `CC(C)NC(=O)N1[C@H](CO)[C@@H](c2ccccc2)C12CN(Cc1ccc(Cl)cc1)C2`, the AC50 [9] was 4.74 µM (active).
For `Cc1ccc(-c2nc3cccnc3s2)cc1NS(=O)(=O)c1ccc2c(c1)OCCO2`, the AC50 [10] was 2.9 µM (active).
With `O=C(CNC(=O)C12CC3CC(CC(C3)C1)C2)NC1=NCCS1` the IC50 [11] was > 66 µM (inactive) and the IC50 [12] was > 66 µM (inactive).
For `Cc1cc(C)c2c(N=NN3CCOCC3)[nH]nc2n1`, the EC50 [13] was > 112 µM (not active), the EC50 [14] was > 112 µM (not active) and the AC50 [10] was 4.4 µM (active).
In the case of `CC1(C)C(=O)C2C[C@]3(O)C4=CC(=O)OC(c5ccoc5)[C@]4(C)CCC3[C@](C)(C2=O)C1CC(=O)O` (stereo partly drawn), the AC50 [8] is reported as 25.1 µM (inconclusive).
In the case of `O=C(NC(=S)NCCC1=CCCCC1)c1ccccc1Br`, the IC50 [11] is reported as > 66 µM (inactive) and the IC50 [12] is reported as > 66 µM (inactive).
With `CC[n+]1c(/C=C(/C)SC)sc2ccccc21` the IC50 [11] was > 66 µM (inactive) and the IC50 [12] was > 66 µM (inactive).
In the case of `Cc1ccc(C(=O)c2cc([N+](=O)[O-])ccc2N2CCCCC2)c(C)c1`, the IC50 [2] is reported as > 80 µM (inactive) and the AC50 [15] is reported as 929 nM (active).
For `c1ccc(-c2ccc3c(c2)NCCN3)cc1`, the EC50 [3] was 16.3 µM (active), the EC50 [5] was 25 µM (active) and the EC50 [6] was 50.5 µM (active). For the same compound, the IC50 [1] was 7.54 µM (active).
For `COc1ccc(-c2cc(C(F)(F)F)nc(S(=O)(=O)CCCC(=O)Nc3cccc(O)c3)n2)cc1OC`, the AC50 [16] was 10.5 µM (active), the AC50 [17] was 162 µM (active) and the EC50 [18] was 7.17 µM (active). For the same compound, the AC50 [19] was 11.8 µM (active), the EC50 [20] was 11.3 µM (active) and the AC50 [21] was 12.7 µM (active). The AC50 [22] was 24.2 µM (active).
